Experimental data from article PMC3303948 (Steroids, 2012).
Values joined by “and” are separate entries in the source; they are usually repeats but may differ in a detail not shown here. Equal entries are not always repeated.

Legend:
CYP24 mRNA [1] = experiment: CYP24 mRNA expression in H292 cells in vitro
Tumor = format: in vivo, nu/nu mice
[2] = 0.5 µg/kg once weekly; oncology setting; cited from earlier work
[3] = Plasma pharmacokinetics of 1,25; format: in vivo, nu/nu mice
[4] = Compartmental analysis of plasma and tumor 1,25
CYP24 mRNA [5] = experiment: CYP24 mRNA expression in H292 xenografts in vivo
[6] = ref personal communication, M. Petkovich; cited from earlier work
CYP27B1 mRNA = CYP27B1 mRNA expression in H292 cells in vitro; format: cell-based, human; settings: data not shown
CYP24 [7] = settings: cited from earlier work
CYP24 [8] = settings: in vitro; 50 nM CTA091; ref Zhang et al., manuscript under review; cited from earlier work
[9] = female, nu/nu, mouse, tumor (H292 xenograft), ip, 20 ug/kg
[10] = female, nu/nu, mouse, plasma, ip, 20 ug/kg
[11] = compartmental model, tumor volume fixed at 1 L/kg
[12] = 250 µg/kg CTA091 i.p. with 20 µg/kg 1,25(OH)2D3 versus 1,25(OH)2D3 alone
[13] = rats, a similar dose (to 250 µg/kg)
[14] = compartmental model, 250 µg/kg CTA091

## C=C1/C(=C\C=C2/CCC[C@]3(C)[C@@H]([C@H](C)CCCC(C)(C)O)CC[C@@H]23)C[C@@H](O)C[C@@H]1O [1,25(OH)2D3, 1,25-dihydroxyvitamin D3]
CYP24 mRNA [1]; 1 nM 1,25(OH)2D3 (Fig. 1A)
  Induction of CYP24 expression in H292 cells in vitro: induced to express CYP24
Tumor; H292 tumor, 20 µg/kg 1,25(OH)2D3 i.p.
  Maximum tumor concentration of 1,25(OH)2D3: 1.70 ng/mL
Tumor; H292 tumor, 20 µg/kg 1,25(OH)2D3 i.p. alone or with 250 µg/kg CTA091
  Tumor Cmax of 1,25(OH)2D3: 1.7 ng/g and 1.70 ng/g
Tumor; [9]
  Tmax: 2 h
  half-life: 1.95 h
  k el: 9.86e-05 s⁻¹
Tumor; given that 1 g of tumor has a volume of 1 mL, without or with CTA091
  Peak tumor concentration of 1,25(OH)2D3 (molar): 3.8 nM
[2]
  Safety of high-dose 1,25(OH)2D3: safely delivered
[3]; [10]
  AUC(0-inf): 69.1 ng·h/mL
  AUC(0-t): 67.4 ng·h/mL
  CL/F: 4.82 mL/min/kg
  Cmax: 21.6 ng/mL
  Tmax: 0.25 h
  Vd/F: 0.592 L/kg
  half-life: 1.42 h
  k el: 0.000136 s⁻¹
[3]; female, nu/nu, mouse, plasma, ip, 20 µg/kg
  Tmax: 0.25 to 0.5 h
[4]; [11]
  kct, transfer rate constant from the central to the tumor compartment, Estimate (%SE): 0.454 (18) h^−1
  ktc, transfer rate constant from the tumor to the central compartment, Estimate (%SE): 1.24 (22) h^−1
[4]; [10]
  CL/F: 4.85 mL/min/kg
  Vd/F: 0.653 L/kg
  half-life: 1.56 h
  k el: 0.000124 s⁻¹
[4]; female, nu/nu, mouse, tumor (H292 xenograft), intraperitoneal, 20 µg/kg
  k el: 0.000292 s⁻¹
[4]; [9]
  half-life: 0.661 h
  k el: 0.000289 s⁻¹
CYP24 mRNA [5]; single dose of 1,25(OH)2D3, 4 h post-treatment
  Increase in tumor CYP24 mRNA levels: approximately 4 fold
CYP24 mRNA [5]; single dose of 1,25(OH)2D3, after 8 h
  Increase in tumor CYP24 mRNA levels: ~15 fold

## C=C1/C(=C\C=C2/CCC[C@]3(C)[C@@H]([C@H](C)CCS(=N)(=O)c4ccccc4)CC[C@@H]23)C[C@@H](O)C[C@@H]1O (stereo partly drawn) [CTA091]
[6]
  Plasma clearance of CTA091 relative to 1,25(OH)2D3: cleared from plasma more rapidly than 1,25(OH)2D3
CYP24 mRNA [1]; H292 cells, CTA091 with 1,25(OH)2D3, data not shown
  Increase of the transcriptional induction of CYP24 by 1,25(OH)2D3: approximately 4 fold
CYP24 mRNA [1]; H292 cells, data not shown
  Effect of CTA091 alone on CYP24 gene expression: no effect
Tumor; [12]
  +/− CTA091 Ratio, tumor/plasma AUC0–h of 1,25(OH)2D3: 1.8
  +/− CTA091 Ratio, tumor/plasma Cmax of 1,25(OH)2D3: 1.7
Tumor; 250 µg/kg CTA091 with 20 µg/kg 1,25(OH)2D3 i.p., H292 tumor
  Increase in 1,25(OH)2D3 tumor levels by co-administered CTA091: 2.6 fold
CYP27B1 mRNA
  Effect on CYP27B1 mRNA expression: no effect
[3]; [12]
  +/− CTA091 Ratio, plasma AUC0-inf of 1,25(OH)2D3: 1.5
  +/− CTA091 Ratio, plasma AUC0–8h of 1,25(OH)2D3: 1.4
  +/− CTA091 Ratio, plasma Cl/F of 1,25(OH)2D3: 0.68
  +/− CTA091 Ratio, plasma Cmax of 1,25(OH)2D3: 1.6
  +/− CTA091 Ratio, plasma Kel of 1,25(OH)2D3: 0.86
  +/− CTA091 Ratio, plasma Tmax of 1,25(OH)2D3: 2
  +/− CTA091 Ratio, plasma Vd/F of 1,25(OH)2D3: 0.79
  +/− CTA091 Ratio, plasma t1/2 of 1,25(OH)2D3: 1.2
[3]; 250 µg/kg CTA091 with 20 µg/kg 1,25(OH)2D3 i.p.
  Increase in 1,25(OH)2D3 plasma levels (Cmax) by co-administered CTA091: 1.6 fold
[3]; 250 µg/kg CTA091 with 20 µg/kg 1,25(OH)2D3 i.p., non-compartmental
  Increase in 1,25(OH)2D3 plasma terminal half-life by CTA091: approximately 1.2 fold
CYP24 [7]; rat, 500 µg/kg CTA091
  Increase in rat serum 1,25(OH)2D3 Cmax: 1.5 fold
  Increase in rat serum 1,25(OH)2D3 exposure: 1.4 fold
CYP24 [7]; [13]
  Effect on endogenous 1,25(OH)2D3 levels: increased endogenous 1,25(OH)2D3 levels
  Effect on serum PTH levels: decreased serum PTH levels
[4]; [14]
  Decrease in plasma clearance of 1,25(OH)2D3 by CTA091: 20%
  Decrease in tumor clearance of 1,25(OH)2D3 by CTA091: 46%
[4]; compartmental model, tumor clearance with versus without CTA091
  ktc/(ktc+ ktumor elim): 0.54
CYP24 [8]
  Effect on 1,25(OH)2D3-mediated transcription: significantly increases 1,25(OH)2D3-mediated transcription
  Inhibition of 1,25(OH)2D3 catabolism: consistently and maximally inhibits 1,25(OH)2D3 catabolism
